Laboratory results: patent publication US20090170899A1, “Stimulators of 5-HT4 receptors and uses thereof” (priority 2004, published 2009)
Entries after “also recorded” stand apart in the source; their conditions may differ. Where two headings read alike, the source gives them in different places.

How the values were obtained:
[1] = system: DRN 5-HT neurons; test: Extracellular single-unit recordings of DRN 5-HT neuron mean firing rate in anaesthetized rats; type: in vivo, rat
[2] = system: hippocampal CA3 pyramidal neurons; test: Acute i.v. prucalopride on firing of hippocampal CA3 pyramidal neurons, with microiontophoresis; type: in vivo, rat
Method: FIGS. 9A to 9D. FIGS. 9A and 9C show a typical example (integrated firing rate histogram) of the response of a single hippocampal pyramidal neuron of the CA3 sub-field to an acute, intravenous administration of the selective 5-HT4 agonist prucalopride (1000 μg/kg), and its reversal by local, microiontophoretic application of the selective 5-HT1A antagonist WAY 100635 (A), or systemic injection of the selective 5-HT4 antagonist GR 125487 (1000 μg/kg, i.v.) (C). Single-cell extracellular recordings were performed in the CA3 region of chloral-hydrate anaesthetized rats by using multiple-barrel glass microelectrodes, combined with microiontophoretic pumps (with the central barrel used for recordings). Pyramidal neurons were identified according to the classical criteria (see Example 5, experimental procedures). FIGS. 9B and 9D show a summary of the effects as for FIGS. 9A and 9C, respectively. Bar histograms represent the mean (S.E.M.) percentage effect, calculated for each neuron with respect to its basal firing rate (i.e. 100% value), and the number in each column represents the number of neurons tested. *p<0.05 vs basal value, one-way ANOVA.
(§1) Microiontophoresis and extracellular recordings from hippocampal CA3 pyramidal neurons. Recording and microiontophoresis were performed with five-barreled glass micropipettes broken back to 8-12 μm under microscope control. The central barrel was filled with the same solution as in the DRN and was used for extracellular unitary recordings. Pyramidal neurons were identified by their large amplitude (0.5-1.2 mV) and long-duration (0.8-1.2 ms) simple spikes alternating with complex spike discharges (Kandel and Spencer, 1961). The side barrels contained the following solutions: quisqualate (1.5 mM in 200 mM NaCl, pH 8), WAY 100635 (15 mM in 200 mM NaCl, pH 4), and 2 M NaCl used for automatic current balancing. Rats were mounted in the stereotaxic apparatus and the micropipettes were lowered at 4.2 mm lateral and 4.2 anterior to lambda into the CA3 sub-region of the dorsal hippocampus.
Involvement of endogenous 5-HT and hippocampal 5-HT1A receptors in the effect of 5-HT4 agonists. […] This interpretation is consistent with our own previous findings, showing that both acute and chronic (3-day) administration of the same compounds augment DRN 5-HT neuronal firing activity (Lucas and Debonnel, 2002; Lucas et al., 2005). It is also in keeping with observations from a single in vivo microdialysis study, where acute systemic injection of preferential 5-HT4 agonists increased hippocampal 5-HT efflux (Ge and Barnes, 1996). To further address this possibility, two additional series of experiments were conducted. First, the role of endogenous 5-HT was assessed by using the same protocol as above, in rats co-treated with RS 67333 (or its vehicle) and the 5-HT depleter para-chlorophenylalanine (pCPA). […] The ejection currents of quisqualate needed to activate CA3 pyramidal neurons were, in this case, similar to those used in controls (0 to −2 nA, FIG. 8C). We then tested the ability of a local application of WAY 100635, directly into the CA3 subfield through the use of microiontophoresis, to modify the effect of a 5-HT4 agonist. We chose not to use the previous protocol (i.e. chronic treatments), because, as shown above, the required quisqualate currents differ between the experimental groups. Even though all currents were balanced, it was not possible to exclude the possibility that the amount of quisqualate present in the vicinity of the electrode may have an influence on the quantity of WAY 100635 actually ejected, and/or on its ability to act on pyramidal neurons. For this reason, prucalopride was used acutely in naïve rats, at a dose known to induce a significant augmentation of DRN 5-HT neuronal activity (1000 μg/kg, i.v.) (Lucas and Debonnel, 2002). […]

[3] = system: hippocampal CA3 pyramidal neurons; test: Response of hippocampal CA3 pyramidal neurons to WAY 100635 after 3-day treatments (5-HT1A tonus); type: in vivo, rat; conditions: rat, in vivo, iv
Method: FIGS. 8A to 8C. […] Single-cell extracellular recordings were performed in the CA3 region of chloral-hydrate anaesthetized rats by using multiple-barrel glass microelectrodes, combined with microiontophoretic pumps (with the central barrel used for recordings). Pyramidal neurons were identified according to the classical criteria (see Example 5, the experimental procedures). The 5-HT4 agonists were administered through the use of osmotic minipumps, inserted subcutaneously in the region of the back. Recordings were performed with the minipumps still in place. *p<0.05, **p<0.01, ***p<0.001 vs control, Dunnett's test. […] FIG. 8C is a typical example showing the response of a single pyramidal neuron to cumulative doses of WAY 100635, in a rat co-administered with RS 67333 (same treatment as above for FIG. 8A) and the 5-HT depleter para-chlorophenylalanine (pCPA; 150 mg/kg, i.p. once daily 72, 48 and 24 h before the recordings).
Drugs and Chemicals. The following compounds were used: GR 125487 sulphamate, prucalopride monohydrochloride, citalopram hydrobromide (gifts from Glaxo, Janssen and Lundbeck laboratories, respectively), RS 67333 hydrochloride (Tocris Cookson Inc., Ellisville, Mo., USA), WAY 100635 hydrochloride (Research Biochemicals, Natick, Mass., USA), pCPA methyl ester hydrochloride, BrdU (Sigma-Aldrich Canada, Oakville, Ontario, Canada). All compounds were diluted in distilled water. All drug dosages refer to the free base. For chronic treatments, prucalopride (2.5 mg/kg/day), RS 67333 (1.5 mg/kg/day) or the vehicle were delivered through osmotic minipumps (Alza, Palo Alto, Calif., USA), inserted subcutaneously in the region of the back under short-duration (≦5 min) halothane anesthesia. The 5-HT depleter PCPA was administered once daily at the dose of 150 mg/kg, i.p., 72, 48 and 24 h before the recordings. BrdU treatments consisted of two administrations per day (50 mg/kg, i.p. each, 8 h interval), starting from the day of minipump insertion until day 2 post-surgery.
as §1
The firing activity of dorsal hippocampus pyramidal neurons was then recorded in the CA3 subfield, before and after systemic administration of the selective 5-HTLA antagonist WAY 100635.

[4] = Forced swimming test (FST); type: in vivo, rat
Description: The “forced swimming test” (FST) is a behavioural test for rodents, which predicts the efficacy of antidepressant drugs (Porsolt et al., 1977; Lucki, 1997). […] The widespread use of this model is largely a result of its ease of use, reliability across laboratories and ability to detect a broad spectrum of antidepressant agents. The test is based on the observation that rats, following initial escape-oriented movements (climbing and swimming), develop an immobile posture when placed in an inescapable cylinder of water. If they are replaced in the same testing apparatus 24 h later, they resume this immobile posture quickly. The immobility is thought to reflect either a failure of persistence in escape-directed behavior (i.e. behavioral despair) or the development of passive behavior that disengages the animal from active forms of coping with stressful stimuli. If antidepressant treatments are given between the two exposures, the subjects will actively persist engaging in escape-directed behaviors for longer periods of time than after vehicle treatment. This will be reflected by a reduction of immobility time, and by an increase of climbing attempts. […] The combination effect of a particular 5-HT4 agonist and a SSRI may be evaluated using the FST model.
Experiments were carried out in male Sprague-Dawley rats (Charles River, St Constant, Québec). We used the FST as previously described (Porsolt et al., 1977). Briefly, the rats experienced a pretest session followed 24 hours later by a test session. For both the pretest and the test sessions, conducted under low illumination (12 lx), the rats were placed in a plastic cylindrical tank (50 cm high by 20 cm in diameter) filled with water at […], with a depth of 40 cm, for which the hind limbs could not reach the tank floor. In all experiments, the pretest was carried out for 15 min and the test for 5 min in the same tank but only the last 4 min were analyzed. Following either pretest or test sessions, rats were dried with a towel and kept warm for 30 min before returning in their home cage. A digital camera recorded on line animal's behavior during the FST, and both time of immobility and climbing attempts were counted. Citalopram hydrobromide (10 mg/kg, i.p.) or paroxetine (10 mg/kg, i.p.) and prucalopride hydrochloride (2.5 mg/kg, i.p.) or RS 67333 hydrochloride (1.5 mg/kg, i.p.) were administered simultaneously 30 minutes before the test session. Animals were divided into 4 groups: vehicle/vehicle, 5-HT4 agonist/vehicle, vehicle/SSRI and 5-HT4 agonist/SSRI. For each compound, distilled water was used as the vehicle. All drug dosages refer to the free base.
Behavioral experiments. We used the FST as previously described (Porsolt et al., 1977). Briefly, rats experienced a pre-test session followed 24 hours later by a test session. For both the pre-test and the test sessions, conducted under low illumination (12 lx), the animals were placed in a plastic cylindrical tank (50 cm high by 20 cm in diameter) filled with water at […], with a depth of 40 cm, for which the hind limbs could not reach the tank floor. In all experiments, the pre-test was carried out for 15 min and the test for 5 min in the same tank but the last 4 min only were analyzed. Prucalopride (2.5 mg/kg, i.p.) and RS 67333 (1.5 mg/kg, i.p.) were administered 30 min before the test session. Following either pre-test or test sessions, rats were dried with a towel and kept warm for 30 min before returning in their home cage. A camera coupled with a computer recorded on line animal behavior during the FST through a specialized digital interface (Videotrack, ViewPoint, Lyon, France). This interface underscored on line the subtraction of video frames. Immobility time in FST was derived from the number of frames (every 40 ms) being below a predefined threshold over FST duration.

[5] = system: DRN 5-HT1A autoreceptors; test: Citalopram i.v. dose-response on DRN 5-HT neuron firing (5-HT1A autoreceptor sensitivity) after 3-day RS 67333; type: in vivo, rat
Method: FIG. 7 is a dose-response curve illustrating the effect of cumulative intravenous doses of citalopram on DRN 5-HT neuron average (mean±S.E.M.) firing rate, expressed as percentage of basal activity, in rats treated with the selective 5-HT4 agonist RS 67333 (1.5 mg/kg/day, 3 days, n=5) or its vehicle (n=5). Single-cell extracellular recordings were performed in the DRN of chloral-hydrate anaesthetized rats by using single-barrel glass microelectrodes, and 5-HT neurons were identified according to the classical criteria (see Example 5, the experimental procedures). RS 67333 was administered through the use of osmotic minipumps, inserted subcutaneously in the region of the back. Recordings were performed with the minipumps still in place.
Extracellular recordings of DRN 5-HT neurons. Recordings were performed using single-barreled glass micropipettes. Electrodes were filled with a 2 M NaCl solution saturated with Fast Green FCF, resulting in an impedance of 2-5 MΩ. Rats were anaesthetized with chloral hydrate (400 mg/kg, i.p.) and placed in a stereotaxic frame. A burr hole was drilled on the midline 1 mm anterior to lambda. DRN 5-HT neurons were encountered over a distance of 1 mm starting immediately below the ventral border of the Sylvius aqueduct. These neurons were identified using the classical criteria: a slow (0.5-2.5 Hz) and regular firing rate and long-duration (0.8-1.2 ms) positive action potentials (Aghajanian, 1978). At the end of the experiments, a 25 μA cathodal current was passed through the recording electrode to leave a Fast Green deposit at the recording site. Animals were sacrificed with an i.v. overdose of chloral hydrate, and the brain removed. The site of recording was verified under microscope immediately after experiments.
Statistical analysis. The comparison between the two slopes in FIG. 7 was performed by using the GraphPad Prism software (Version 3.03, GraphPad Software Inc.). All other statistics were performed by using one-way ANOVAs, followed by the Dunnett's test when multiple comparisons were necessary.
Effect of a 3-day treatment with a 5-HT4 agonist on DRN 5-HT1A autoreceptors sensitivity. […] In rats treated with the selective 5-HT4 agonist RS 67333 (Eglen et al., 1995) (1.5 mg/kg/day), these values were shifted to the right, reaching 226±26 and 430 μg/kg, respectively. […] The acute inhibitory effect produced by a SSRI on DRN 5-HT neuronal activity results from increased extracellular levels of 5-HT, due to the blockade of its reuptake, and is selectively related to the stimulation of somatodendritic 5-HT1A autoreceptors (Hajos et al., 1999). The degree of inhibition induced by citalopram has therefore been used as a reliable index of their sensitivity (Arborelius et al., 1999, 2004; Sanchez et al., 2003). It appears that a 3-day treatment with a 5-HT4 receptor agonist is sufficient to desensitize 5-HT1A autoreceptors in the DRN.

[6] = system: DRN 5-HT neurons; conditions: cited from earlier work
[7] = microiontophoretic application, 1 nA
[8] = rats treated with RS 67333 1.5 mg/kg/day, 3 days

COc1[nH]c2ccc(F)cc2c1C(=O)OCC1CCN(CCNS(C)(=O)=O)CC1 [GR 125487]
effect of GR 125487 on the facilitory effect of 3-day prucalopride or RS 67333 on DRN 5-HT firing rate ([1]; GR 125487 acute i.v., tracks from 30 min after injection): totally suppressed
effect of GR 125487 on its own on 5-HT neuronal activity ([1]; acute i.v., control rats): small, non statistically significant
effect of GR 125487 on the action of prucalopride ([2]; GR 125487 1000 μg/kg i.v.): abolished

COc1ccccc1N1CCN(CCN(C(=O)C2CCCCC2)c2ccccn2)CC1 [WAY 100635]
effect of WAY 100635 on CA3 pyramidal neurons [3]: no effect; also recorded: without any effect
effect of local WAY 100635 by itself [2, 7]: devoid of any effect
effect of local WAY 100635 on the inhibition by prucalopride [2, 7]: totally reversed

CN(C)CCCC1(c2ccc(F)cc2)OCc2cc(C#N)ccc21 (stereo not shown) [citalopram]
change of total time of immobility in FST ([4]; Example 3, single i.p. 30 min before test, citalopram or paroxetine 10 mg/kg, prucalopride 2.5 mg/kg, RS 67333 1.5 mg/kg): −34%
effect on immobility in FST ([4]; Example 4, citalopram 3 mg/kg i.p.): no effect
slope of the dose-response curve ([5]; RS 67333 group (1.5 mg/kg/day, 3 days)): −0.25±0.02
ED50 of inhibition of 5-HT neuronal firing rate ([5]; naïve (vehicle) animals): 130 ± 30 µg/kg
ED100 of inhibition of 5-HT neuronal firing rate ([5]; naïve (vehicle) animals): 280 µg/kg
ED50 of inhibition of 5-HT neuronal firing rate [5, 8]: 226 ± 26 µg/kg
ED100 of inhibition of 5-HT neuronal firing rate [5, 8]: 430 µg/kg
slope of the dose-response curve ([5]; vehicle group): −0.34±0.03

CN1CCN2c3ncccc3Cc3ccccc3C2C1 (stereo not shown) [mirtazapine]
effect on 5-HT neuron firing rate ([6]; acute conditions, Haddjeri et al., 1996): increases
effect on 5-HT neuron firing rate ([6]; after a 2-day treatment, Besson et al., 2000): no longer present
